“Also recorded” adds a separate entry of the source.
How the values were obtained:
lac promoter = experiment: EGFP fluorescence reporter assay of induction of protein expression under the lac promoter; format: cell-based, E. coli; conditions: for EGFP fluorescence emission at 507 nm after excitation at 488 nm, normalized for the number of cells: induced at OD600 0.7, versus culture without inducer
Excerpt: To compare the ability of the C-glycoside to take the place of IPTG in the induction of protein expression, assays of promoter activity that rely on production of a fluorescent protein were pursued. Reporters for gene activity in bacteria that rely on green fluorescent protein (GFP) and its variants have become very popular as they have been validated by direct comparison to traditional reporter assays using either chloroamphenicol acetyltransferase or β-galactosidase. For bacterial studies, the enhanced green fluorescent protein (EGFP) is particularly useful as it is not toxic to E. coli like the wild type GFP itself and the protein folds and autocatalyzes formation of its fluorophore with a half-life of less than 45 minutes rather than hours. Therefore, the gene for EGFP (BD Biosciences) was ligated into a pET vector plasmid using NcoI and EcoRI in order to have control of EGFP protein expression with a lac promoter system and to have low background protein expression levels. This plasmid was transformed into E. coli BL21 DE(3) cells for protein expression studies. The cells were grown to an optical density of 0.7 (at 600 nm) and then protein production was induced with either IBCG or IPTG. The fluorescence emission at 507 nm after excitation at 488 nm, normalized for the number of cells, was plotted as a function of time (data not shown) as previously reported.

[1] = Stability of the inducer in solution on storage; format: physicochemical; conditions: ambient / room temperature; in water
Excerpt: This improved stability feature of IBCG also results in more accurate concentrations of the compound when used in experiments.
The latter property is especially valuable for small scale culture induction and for cases in which a more precise concentration of inducer is desirable.

[2] = E. coli BL21 DE(3) with pET-EGFP plasmid

Row | Structure (SMILES) | EGFP fluorescence emission at 507 nm after excitation at 488 nm, normalized for the number of cells (lac promoter; [2]) | EGFP fluorescence of IBCG induced cells compared with IPTG induced cells (lac promoter; E. coli BL21 DE(3) with pET-EGFP plasmid, induction times of greater than four hours) | cell permeability (lac promoter; E. coli cells, inferred from induction of protein expression) | stability in solution [1]
1 | CC(C)CC1OC(CO)C(O)C(O)C1O [IBCG, 1-isobutyl-,β-D-galactose] | considerably larger | even greater fluorescence than the IPTG induced cells | retains cell permeability | stable in solution at ambient temperature; also recorded: can be autoclaved in water and stored in room temperature
2 | CC(C)S[C@@H]1O[C@H](CO)[C@H](O)[C@H](O)[C@H]1O [IPTG, isopropyl-β-D-thiogalactopyranoside, reference compound] | considerably larger | – | – | –

From patent US7141394B2, “More stable analog of isopropyl thiogalactoside for induction of protein expression” (Iowa State University Research Foundation, Inc., priority 2003, dated 2006)
